ChEMBL document CHEMBL3045112, “In vitro antimicrobial assessment of coumarin-based s-triazinyl piperazines” (2012)
Values after ≈ are worked out from the molar mass of the structure shown.

Tests used:
Aspergillus niger [1] = experiment: Antifungal activity against Aspergillus niger after 48 hr by agar plate method; assay type: functional
Candida albicans [2] = experiment: Antifungal activity against Candida albicans after 48 hr by agar plate method; assay type: functional
Aspergillus niger [3] = experiment: Antifungal activity against Aspergillus niger at 100 ug/disk after 48 hr by disk diffusion test; assay type: functional; conditions: read-out: IZ
Candida albicans [4] = experiment: Antifungal activity against Candida albicans at 100 ug/disk after 48 hr by disk diffusion test; assay type: functional; conditions: read-out: IZ
Escherichia coli [5] = experiment: Antibacterial activity against Escherichia coli after 24 hr by agar plate method; assay type: functional
Pseudomonas aeruginosa [6] = experiment: Antibacterial activity against Pseudomonas aeruginosa after 24 hr by agar plate method; assay type: functional
Bacillus subtilis [7] = experiment: Antibacterial activity against Bacillus subtilis after 24 hr by agar plate method; assay type: functional
Staphylococcus aureus [8] = experiment: Antibacterial activity against Staphylococcus aureus after 24 hr by agar plate method; assay type: functional
Pseudomonas aeruginosa [9] = experiment: Antibacterial activity against Pseudomonas aeruginosa at 100 ug/disk after 24 hr by disk diffusion test; conditions: read-out: IZ
Escherichia coli [10] = experiment: Antibacterial activity against Escherichia coli at 100 ug/disk after 24 hr by disk diffusion test; conditions: read-out: IZ
Bacillus subtilis [11] = experiment: Antibacterial activity against Bacillus subtilis at 100 ug/disk after 24 hr by disk diffusion test; conditions: read-out: IZ
Staphylococcus aureus [12] = experiment: Antibacterial activity against Staphylococcus aureus at 100 ug/disc after 24 hr by disk diffusion test; conditions: read-out: IZ

Compound | MIC (Aspergillus niger [1]) [µg/mL] | MIC (Candida albicans [2]) [µg/mL] | zone of inhibition at 100 µg/disc (Aspergillus niger [3]) [mm] | zone of inhibition at 100 µg/disc (Candida albicans [4]) [mm] | MIC (Escherichia coli [5]) [µg/mL] | MIC (Pseudomonas aeruginosa [6]) [µg/mL] | MIC (Bacillus subtilis [7]) [µg/mL] | MIC (Staphylococcus aureus [8]) [µg/mL] | zone of inhibition at 100 µg/disc (Pseudomonas aeruginosa [9]) [mm] | zone of inhibition at 100 µg/disc (Escherichia coli [10]) [mm] | zone of inhibition at 100 µg/disc (Bacillus subtilis [11]) [mm] | zone of inhibition at 100 µg/disc (Staphylococcus aureus [12]) [mm]
CC(=O)N1CCN(c2ccc(OCC3COC(Cn4ccnc4)(c4ccc(Cl)cc4Cl)O3)cc2)CC1 (configuration not stated) [KETOCONAZOLE] | 6.25 (≈ 11.8 µM) | 3.12 (≈ 5.88 µM) | 30 | 33 | – | – | – | – | – | – | – | –
O=C(O)c1cn(C2CC2)c2cc(N3CCNCC3)c(F)cc2c1=O [CIPROFLOXACIN] | – | – | – | – | 3.12 (≈ 9.43 µM) | 3.12 (≈ 9.43 µM) | 3.12 (≈ 9.43 µM) | 3.12 (≈ 9.43 µM) | 33 | 32 | 29 | 29
